Literature values as cited in US20230225964A1, “MICROSTIRRING DEVICES AND TECHNIQUES FOR ENHANCING BIOAVAILABILITY OF ORALLY ADMINISTERED DRUGS” (The Regents of the University of California, priority 2022, published 2023).
Converted amounts (≈) assume the structure as drawn.

solubility in water: 66 mg/mL (≈ 335 mM)
SMILES: N[C@@H](Cc1ccc(O)c(O)c1)C(=O)O [L-Dopa, levodopa]
